Test results published in patent publication US12133714B2, “Line excitation array detection microscopy” (BOARD OF REGENTS, THE UNIVERSITY OF TEXAS SYSTEM, priority 2018, dated 2024).
Entries after “also recorded” stand apart in the source; their conditions may differ.

Assays:
[1] = tested on: polyQ40 strain C. elegans (polyglutamine mediated aggregation of YFP-labeled protein in body wall muscle cells); assay: LEAD flow cytometry imaging of polyQ aggregation model C. elegans treated with drug; format: in vivo; settings: for number of fluorescent protein aggregates per animal (median ± standard deviation): polyQ40 animals treated at L1 stage, imaged at late L4 stage, untreated polyQ40 27±3
Excerpt: The model simulates human Huntington's disease through CAG repeats in the huntingtin allele, with 35 or more repeats resulting in polyglutamine (polyQ) mediated aggregation, protein misfolding, and cellular toxicity^36. Specifically, the polyQ40 strain was imaged with 40 CAG repeats at the late L4 stage when the disease phenotype presents as aggregation of YFP-labeled protein in the body wall muscle cells. The aggregates are 1-5 μm in diameter and distributed in 3D along the length of the animal, and therefore requires relatively high resolution volumetric imaging. […] Populations of up to 300 animals were imaged. The animals moved at 0.89±0.31 m/s through the imaging channel, resulting in an imaging time of 1.07±0.26 ms per animal with the majority of the population imaged within 1 second (See FIGS. 10B, 10C). The maximum available laser power of 4 mW at the sample was sufficient to utilize the full dynamic range of our collection system. […] Despite the ultrafast scanning, C. elegans images show SNRs exceeding 500 for the center PMT elements and slightly lower SNR for the less responsive surrounding elements in accordance with the PMT specifications (see FIG. 9D). 27±3 (median±standard deviation) aggregates per animal for the polyQ40 strain were found, similar to previous findings for worms at the same stage^36. […] PolyQ40 animals were treated with either 25 or 50 μM dronedarone at the L1 stage, and were imaged at the late L4 stage (FIG. 16A). The drug reduced aggregation to 16±5 and 7±2 aggregates per animal for 25 μM and 50 μM, respectively, showing a dose response (FIG. 16B). The system's high-speed 3D imaging capability for drug screening is established by the short imaging time for the effectivity of dronedarone reaches a statistically significant level—animals treated with 25 and 50 μM dronedarone reach p=0.001 in under 0.25 s and 0.10 s, respectively (FIG. 16C). […]

[2] = tested on: polyQ40 strain C. elegans (polyglutamine mediated aggregation of YFP-labeled protein in body wall muscle cells); settings: polyQ40 animals, earlier publication (ref. 37); cited from earlier work

CCCCc1oc2ccc(NS(C)(=O)=O)cc2c1C(=O)c1ccc(OCCCN(CCCC)CCCC)cc1 [dronedarone]
number of fluorescent protein aggregates per animal (median ± standard deviation) ([1]; 25 μM): 16±5 aggregates per animal
number of fluorescent protein aggregates per animal (median ± standard deviation) ([1]; 50 μM): 7±2 aggregates per animal
effect on formation of protein aggregates (in words) ([1]; polyQ40 animals, 25 and 50 μM, LEAD imaging): prevents the formation of protein aggregates with a dose response; also recorded: can reduce aggregation with a dose response
effect on formation of aggregates, previously observed (in words) [2]: prevents the formation of aggregates in the polyQ40 animals
